Patent publication US20110166234A1, “MEDICINAL PRODUCT AND TREATMENT” (priority 2008, published 2011)

System: human patients suffering from osteoarthritis
Assay: Clinical study in osteoarthritis patients: patient-recorded adverse side effects
Format: in vivo
Details: 4 weeks
Text: Four groups of patients were selected and each group was given one or other of the following medications over a four week period:
All patients were aged from 45-80 and had been suffering from chronic knee pain due to osteoarthritis for at least 6 months. Patients went through a washout period of their existing osteoarthritis treatments. […] At the beginning of the study, and also at conclusion of each subsequent week, patients were required to visit a physician and complete a WOMAC questionnaire and a Global Pain Rating Assessment.
In terms of adverse side effects patients were asked to keep a record of these, if any.

SMILES: CC(C)Cc1ccc(C(C)C(=O)O)cc1 (centres unmarked) [Ibuprofen, ibuprofen]
- adverse side effects recorded (Ibuprofen High group: 2 × 300 mg ibuprofen tablets four times daily, 2,400 mg per day, both related to gastric discomfort): two probable adverse effects
- adverse side effects recorded (Ibuprofen Low group: 2 × 150 mg ibuprofen tablets four times daily, 1,200 mg per day): no confirmed or probable adverse side effects
